Experimental findings from patent publication US5324725A, “7-fused 2-(piperazinoalkyl) indole derivatives, intermediates and compositions thereof” (Kali-Chemie Pharma GmbH, priority 1991, dated 1994) are described below.

SMILES strings stand for the structures. Like-named read-outs stand apart in the source and are kept apart here.

Data set [1] relates to Passive cutaneous anaphylaxis (P.C.A.). In words: Inhibition of passive cutaneous anaphylaxis (P.C.A.). It is filed as in vivo, rat (Sprague-Dawley). The note with it: Rattus norvegicus, 1 h; rats, 2 × 10^-5 mol/kg p.o., one hour before ovalbumin challenge. The essentials: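 Sprague-Dawley rats (150-180 g) were sensitized intradermally with rat IgE-rich anti-ovalbumin serum and challenged 24 h later with i.v. ovalbumin 8.25 mg/kg plus Evans blue. Compound was given orally at 2×10^-5 mol/kg 1 h before challenge. Dye exudation was scored visually at 30 min as % inhibition versus vehicle controls.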

In data set [2] the test system is Histamine-induced anaphylactoid reactions. In words: Inhibition of anaphylactoid cutaneous reaction induced by histamine. It is filed as in vivo, rat (Sprague-Dawley). The note with it: Rattus norvegicus, 1 h; rats, 2 × 10^-5 mol/kg p.o., one hour before challenge; histamine intradermal. The method in brief: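 Animals received 50 μl intradermal histamine (0.8 mg/ml in saline) in the flank opposite the antiserum site, just before i.v. ovalbumin plus blue dye. Test substance at 2×10^-5 mol/kg was given orally 1 h before challenge in water with 1% DMF and 1% Tween 20. Blue-dye exudation was scored visually at 30 min, giving % inhibition versus solvent controls.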

The nature of data set [3]: Determination of the minimum toxic dose. On the set-up: species or system male mice. The note with it: mouse, in vivo, po, 300 mg/kg, 1440 min. The method, then: 2. Determination of the minimum toxic dose.
Maximum doses of 300 mg/kg of the test substance were administered orally to male mice weighing 20-25 g. The animals were observed carefully for 3 hours for toxicity symptoms. In addition, all symptoms and deaths over a period of 24 hours after administration were recorded. Associated symptoms were also observed and recorded. If death or severe toxic symptoms were observed, further mice were administered increasingly lower doses. The lowest dose which caused death or severe toxic symptoms is given as the minimum toxic dose in the following Table B.

Another data set has as its target T1, histamine (H1) receptor (Cavia porcellus, UniProt P31389).
T1 construct: isolated smooth muscle of the guinea-pig ileum; from tissue; host or cells: isolated ileum segments of Dunkin Hartley guinea-pigs
In words: Antihistamine (H1) effect: inhibition of histamine-induced contractions of isolated guinea-pig ileum in vitro. Format: cell-based, guinea-pig (Dunkin Hartley). The note with it: histamine 5 × 10^-6 mol/l, test substance 10^-6 mol/l. The method in brief: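 Dunkin Hartley guinea-pig ileum segments (300-500 g animals) in Krebs-Henseleit, pH 7.4, 5% CO2/95% O2, 1 g tension, isotonic recording. Compound at 10^-6 mol/l for 30 s before histamine 5×10^-6 mol/l; contraction measured over 30 s, repeated 10 min after washout, expressed as % inhibition.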

[4] abbreviates: after 30 sec., read-out: in vitro (H1) receptor antagonism % inhibitory effect on histamine-induced contractions of the Ileum, after 30 sec.
Where [5] appears, read: after 10 min. (after washing), read-out: in vitro (H1) receptor antagonism % inhibitory effect on histamine-induced contractions of the Ileum, after 10 min.

By inhibition in vivo is commonly meant how much of the control response was suppressed. Low readings indicate a response near the control, high ones a response far below the control.

T1 sequence (P31389 whole entry): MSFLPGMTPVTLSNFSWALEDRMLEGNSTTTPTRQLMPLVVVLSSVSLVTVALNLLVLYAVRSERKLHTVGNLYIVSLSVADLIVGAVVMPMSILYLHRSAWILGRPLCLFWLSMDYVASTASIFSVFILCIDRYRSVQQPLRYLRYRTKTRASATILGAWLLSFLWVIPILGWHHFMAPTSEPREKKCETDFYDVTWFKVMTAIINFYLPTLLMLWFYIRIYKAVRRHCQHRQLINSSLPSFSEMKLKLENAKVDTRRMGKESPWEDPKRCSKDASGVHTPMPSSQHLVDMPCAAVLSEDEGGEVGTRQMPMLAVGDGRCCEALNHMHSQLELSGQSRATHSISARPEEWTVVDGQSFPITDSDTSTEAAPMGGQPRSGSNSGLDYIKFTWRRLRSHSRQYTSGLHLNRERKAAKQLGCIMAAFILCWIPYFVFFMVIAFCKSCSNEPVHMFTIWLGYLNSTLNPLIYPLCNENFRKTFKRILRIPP

For `Cc1ccnc(N2CCN(CCc3c(C)n4c5c(cccc35)SCC4)CC2)c1` [Example 11, 5-Methyl-6-{2-[4-(4-methylpyridin-2-yl)piperazin-1-yl]ethyl}-2,3-dihydro-pyrrolo[1,2,3-de]-1,4-benzo-thiazine], the values for the inhibition in vivo at 20 µmol/kg in data set [1] and in data set [2] were 100% and 93%, respectively. For the same compound, the “Minimum toxic dose (lowest dose which caused death or severe toxic symptoms)” value (from here on “Minimum toxic dose”) in data set [3] is reported as 100 mg/kg. Further, the figures for the inhibition at 1 µM at histamine (H1) receptor (setting [4]) and on histamine (H1) receptor (setting [5]) were 21% and 84%, respectively.
The matching figures for `Cc1ccc(N2CCN(CCc3c(C)n4c5c(cccc35)CCC4)CC2)nc1` [Example 42]: 50%, 45%, 100 mg/kg, 52% and 54%.
The matching figures for `Cc1ccnc(N2CCN(CCc3c(C)n4c5c(cc(C)cc35)CCC4)CC2)c1` [Example 54]: 93%, 73%, 300 mg/kg, 8% and 94%.
The matching figures for `Cc1ccnc(N2CCN(CCc3c(C)n4c5c(ccc(Cl)c35)OCC4)CC2)c1` [Example 35]: 75%, 58%, 300 mg/kg, 25% and 78%.
As to `Cc1ccnc(N2CCN(CCc3cn4c5c(cccc35)CCC4)CC2)c1` [Example 13, 5,6-Dihydro-1-{2-[4-(4-methylpyridin-2-yl)piperazin-1-yl]ethyl}-4H-pyrrolo[3,2,1-ij]quinoline], the inhibition in vivo at 20 µmol/kg came out at 83% in data set [1] and 68% in data set [2]. Besides, the “Minimum toxic dose” value in data set [3] was found to be 100 mg/kg. Besides, the inhibition at 1 µM is 33% on histamine (H1) receptor (setting [4]) and 63% at histamine (H1) receptor (setting [5]).
The matching figures for `Cc1ccnc(N2CCN(CCc3c(C)n4c5c(cccc35)CCC4)CC2)c1` [Example 1, 5,6-Dihydro-2-methyl-1-{2-[4-(4-methylpyridin-2-yl)piperazin-1-yl]ethyl}-4H-pyrrolo[3,2,1-ij]quinoline]: 98%, 85%, 100 mg/kg, 42% and 88%.
On to `CCc1c(C(O)CN2CCN(c3cc(C)ccn3)CC2)c2cccc3c2n1CCC3` (stereo not shown) [Example 14, 2-Ethyl-5,6-dihydro-1-{2-[4-(4-methylpyridin-2-yl)piperazin-1-yl]-1-hydroxyethyl}-4H-pyrrolo[3,2,1-ij]quinoline], for which the inhibition in vivo at 20 µmol/kg in data set [1] is 65%; in data set [2], 25%. Moreover, the “Minimum toxic dose” value in data set [3] was found to be 300 mg/kg.
For `Cc1ccnc(N2CCN(CCc3c(C)n4c5c(cccc35)CCC4c3ccccc3)CC2)c1` (stereo not shown) [Example 3, 5,6-dihydro-2-methyl-4-phenyl-1-{2-[4-(4-methylpyridine-2-yl)piperazin-1-yl]-ethyl}-4H-pyrrolo[3,2,1-ij]quinoline], the inhibition in vivo at 20 µmol/kg turned out to be 100% in data set [1] and 93% in data set [2]. The “Minimum toxic dose” value in data set [3] was determined as 300 mg/kg. Also, the inhibition at 1 µM stood at 15% at histamine (H1) receptor (setting [4]) and 57% at histamine (H1) receptor (setting [5]).
The matching figures for `Cc1ccnc(N2CCN(CCc3c(C)n4c5c(cccc35)C(C)CC4)CC2)c1` (stereo not shown) [Example 57]: 100%, 95%, 300 mg/kg, 20% and 80%.
